Measurements from patent publication US9539260B2, “Dihydro-benzo-oxazine and dihydro-pyrido-oxazine derivatives” (Novartis AG, priority 2012, dated 2017).
pIC50: −log10 of the molar value.

Legend:
PI3K alpha = PI3K alpha (Homo sapiens (Human), UniProt P42336); experiment: Enzymatic PI3K alpha isoform inhibition (lipid kinase activity, Kinase-Glo luminescence); format: biochemical; settings: Enzymatic assay
Experimental: (§1) 1.1 Test of Lipid Kinase Activity […]
(§2) In a more preferred assay, the kinase reaction is performed in a final volume of 10 μl per well of a low volume non-binding CORNING, 384 well black plate (Cat. No. #3676). The final concentrations of ATP and phosphatidyl inositol (PI) in the assay are 1 μM and 10 μg/mL, respectively. The reaction is started by the addition of ATP.
(§3) The components of the assay are added per well as follows:
(§4) The Z′ value is a universal measurement of the robustness of an assay. A Z′ between 0.5 and 1.0 is considered an excellent assay.
(§5) IC50 is determined by a four parameter curve fitting routine that comes along with “excel fit”. A four parameter logistic equation is used to calculate IC50 values (IDBS XLfit) of the percentage inhibition of each compound at 8 concentrations (usually 10, 3.0, 1.0, 0.3, 0.1, 0.030, 0.010 and 0.003 μM). Alternatively, IC50 values are calculated using idbsXLfit model 204, which is a 4 parameter logistic model.
(§6) Yet alternatively, for an ATP depletion assay, compounds of the formula I to be tested are dissolved in DMSO and directly distributed into a white 384-well plate at 0.5 μl per well. To start the reaction, 10 μl of 10 nM PI3 kinase and 5 μg/mL 1-alpha-phosphatidylinositol (PI) are added into each well followed by 10 μl of 2 μM ATP. The reaction is performed until approx 50% of the ATP is depleted, and then stopped by the addition of 20 μl of Kinase-Glo solution (Promega Corp., Madison, Wis., USA). The stopped reaction is incubated for 5 minutes and the remaining ATP is then detected via luminescence. IC50 values are then determined.

PI3K delta = PI3K delta (Homo sapiens (Human), UniProt O00329); experiment: Enzymatic PI3K delta isoform inhibition (lipid kinase activity, Kinase-Glo luminescence); format: biochemical; settings: Enzymatic assay
PI3K delta, sequence (O00329 other isoform, or with tags, fused parts or gaps linker GGGGGG): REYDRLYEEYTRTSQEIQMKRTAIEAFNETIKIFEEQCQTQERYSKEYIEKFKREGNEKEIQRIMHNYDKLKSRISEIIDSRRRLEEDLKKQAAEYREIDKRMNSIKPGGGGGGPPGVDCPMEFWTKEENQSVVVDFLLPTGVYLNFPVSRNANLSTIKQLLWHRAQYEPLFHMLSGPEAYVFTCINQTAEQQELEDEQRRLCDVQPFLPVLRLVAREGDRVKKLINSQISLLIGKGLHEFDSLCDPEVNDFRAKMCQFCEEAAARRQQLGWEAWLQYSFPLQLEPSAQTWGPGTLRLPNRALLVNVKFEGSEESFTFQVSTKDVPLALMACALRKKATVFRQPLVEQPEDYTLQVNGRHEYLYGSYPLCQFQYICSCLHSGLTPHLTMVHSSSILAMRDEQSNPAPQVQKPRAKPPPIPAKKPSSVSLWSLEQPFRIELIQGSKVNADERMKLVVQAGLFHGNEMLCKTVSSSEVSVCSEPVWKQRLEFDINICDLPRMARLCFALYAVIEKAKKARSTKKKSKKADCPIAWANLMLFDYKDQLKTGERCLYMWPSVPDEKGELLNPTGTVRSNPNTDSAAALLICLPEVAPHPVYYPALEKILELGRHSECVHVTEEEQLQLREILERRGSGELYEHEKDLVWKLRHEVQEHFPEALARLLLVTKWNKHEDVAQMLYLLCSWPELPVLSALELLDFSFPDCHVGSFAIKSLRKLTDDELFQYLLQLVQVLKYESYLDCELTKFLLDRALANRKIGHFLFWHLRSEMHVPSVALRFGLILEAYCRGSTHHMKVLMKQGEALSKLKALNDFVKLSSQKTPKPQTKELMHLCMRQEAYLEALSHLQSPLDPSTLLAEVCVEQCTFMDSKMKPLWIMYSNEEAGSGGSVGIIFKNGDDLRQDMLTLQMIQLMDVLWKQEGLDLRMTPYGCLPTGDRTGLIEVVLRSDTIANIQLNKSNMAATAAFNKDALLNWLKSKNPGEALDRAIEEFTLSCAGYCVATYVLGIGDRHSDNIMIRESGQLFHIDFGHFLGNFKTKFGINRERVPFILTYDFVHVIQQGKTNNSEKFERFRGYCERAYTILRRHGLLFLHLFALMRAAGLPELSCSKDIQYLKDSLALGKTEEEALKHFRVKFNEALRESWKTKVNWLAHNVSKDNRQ
Experimental: as §1, §2, §3, §4, §5, §6

PI3K alpha, sequence (P42336 other isoform, or with tags, fused parts or gaps): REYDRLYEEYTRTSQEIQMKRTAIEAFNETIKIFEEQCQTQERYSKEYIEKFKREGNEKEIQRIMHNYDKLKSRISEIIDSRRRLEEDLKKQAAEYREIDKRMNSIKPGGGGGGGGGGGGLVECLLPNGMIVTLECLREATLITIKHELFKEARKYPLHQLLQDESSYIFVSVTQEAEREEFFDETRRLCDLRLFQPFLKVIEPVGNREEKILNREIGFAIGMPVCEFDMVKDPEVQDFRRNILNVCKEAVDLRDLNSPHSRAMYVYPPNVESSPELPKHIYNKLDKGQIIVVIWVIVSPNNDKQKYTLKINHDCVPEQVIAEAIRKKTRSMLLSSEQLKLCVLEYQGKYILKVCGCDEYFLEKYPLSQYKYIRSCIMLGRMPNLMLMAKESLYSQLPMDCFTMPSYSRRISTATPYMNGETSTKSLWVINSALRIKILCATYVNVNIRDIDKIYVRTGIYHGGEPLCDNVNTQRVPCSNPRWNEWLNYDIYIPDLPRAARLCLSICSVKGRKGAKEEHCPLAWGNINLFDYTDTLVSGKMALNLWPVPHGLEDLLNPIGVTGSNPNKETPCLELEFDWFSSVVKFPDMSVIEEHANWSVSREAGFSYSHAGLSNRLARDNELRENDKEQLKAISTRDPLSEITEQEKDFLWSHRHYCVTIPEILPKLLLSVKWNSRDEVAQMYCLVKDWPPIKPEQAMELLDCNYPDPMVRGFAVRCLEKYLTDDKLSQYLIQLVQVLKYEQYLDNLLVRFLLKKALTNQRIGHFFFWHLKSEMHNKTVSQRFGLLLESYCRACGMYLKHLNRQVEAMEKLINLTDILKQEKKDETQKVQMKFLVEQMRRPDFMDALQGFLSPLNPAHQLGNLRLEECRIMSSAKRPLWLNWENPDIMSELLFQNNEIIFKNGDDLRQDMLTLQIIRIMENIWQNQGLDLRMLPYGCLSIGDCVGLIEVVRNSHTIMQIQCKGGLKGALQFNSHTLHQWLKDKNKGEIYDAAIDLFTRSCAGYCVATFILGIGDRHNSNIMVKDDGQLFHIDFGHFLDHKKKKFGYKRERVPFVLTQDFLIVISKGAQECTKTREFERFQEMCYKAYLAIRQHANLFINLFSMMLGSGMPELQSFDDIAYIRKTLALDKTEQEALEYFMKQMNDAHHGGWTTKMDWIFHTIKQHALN

| SMILES | pIC50 (PI3K alpha) | pIC50 (PI3K delta) |
| --- | --- | --- |
| COc1ncc(N2CCOc3ccc(O[C@H]4CCN(C(=O)C5CCS(=O)(=O)C5)C4)cc32)cc1F (single isomer, unassigned) [Example H11] | 6.52 | 8.10 |
| COc1ncc(N2CCOc3ccc(O[C@H]4CCN(C(=O)C5CCS(=O)(=O)C5)C4)cc32)cc1F (single isomer, unassigned) [Example H12] | 6.28 | 8.15 |
| COc1ncc(N2CCOc3ccc(O[C@H]4CCN(C(=O)C5CCS(=O)(=O)C5)C4)cc32)cc1Cl (single isomer, unassigned) [Example H13] | 6.41 | 8.05 |
| COc1ncc(N2CCOc3ccc(O[C@H]4CCN(C(=O)C5CCS(=O)(=O)C5)C4)cc32)cc1Cl (single isomer, unassigned) [Example H14] | 6.99 | 8.30 |
| COc1ncc(N2CCOc3ccc(O[C@H]4CCN(C(=O)C5COCCO5)C4)cc32)cc1F (single isomer, unassigned) [Example H15] | 6.14 | 8.10 |
| COc1ncc(N2CCOc3ccc(O[C@H]4CCN(C(=O)C5COCCO5)C4)cc32)cc1F (single isomer, unassigned) [Example H16] | 6.06 | 7.80 |
| COc1ncc(N2C[C@H](C)Oc3ccc(O[C@H]4CCN(C(=O)C5CCOCC5)C4)cc32)cc1C#N (single isomer, unassigned) [Example O2] | 5.24 | 7.31 |
| CN(C)S(=O)(=O)c1cncc(N2CCOc3ccc(O[C@H]4CCN(C(=O)C5CCOCC5)C4)cc32)c1 [Example A2, 5-{6-[(S)-1-(Tetrahydro-pyran-4-carbonyl)-pyrrolidin-3-yloxy]-2,3-dihydro-benzo[1,4]oxazin-4-yl}-pyridine-3-sulfonic acid dimethylamide] | 7.33 | 8.22 |
| N#Cc1cncc(N2CCOc3ccc(O[C@H]4CCN(C(=O)C5CCOCC5)C4)cc32)c1 [Example A7, 5-{6-[(S)-1-(Tetrahydro-pyran-4-carbonyl)-pyrrolidin-3-yloxy]-2,3-dihydro-benzo[1,4]oxazin-4-yl}-nicotinonitrile] | 5.72 | 7.51 |
| CCC(=O)N1CC[C@H](Oc2ccc3c(c2)N(c2ccc(S(C)(=O)=O)nc2)CCO3)C1 [Example A8, 1-{(S)-3-[4-(6-Methanesulfonyl-pyridin-3-yl)-3,4-dihydro-2H-benzo[1,4]oxazin-6-yloxy]-pyrrolidin-1-yl}-propan-1-one] | 5.23 | 7.40 |
| CCC(=O)N1CC[C@H](Oc2ccc3c(c2)N(c2cnc(OC)c(C#N)c2)CCO3)C1 [Example A9, 2-Methoxy-5-[6-((S)-1-propionyl-pyrrolidin-3-yloxy)-2,3-dihydro-benzo[1,4]oxazin-4-yl]-nicotinonitrile] | 6.39 | 7.85 |
| CCC(=O)N1CC[C@H](Oc2ccc3c(c2)N(c2cnc(OC)c(C(F)(F)F)c2)CCO3)C1 [Example A10, 1-{(S)-3-[4-(6-Methoxy-5-trifluoromethyl-pyridin-3-yl)-3,4-dihydro-2H-benzo[1,4]oxazin-6-yloxy]-pyrrolidin-1-yl}-propan-1-one] | 6.66 | 7.74 |
| CCC(=O)N1CC[C@H](Oc2ccc3c(c2)N(c2cnc(OC)c(F)c2)CCO3)C1 [Example A11, 1-{(S)-3-[4-(5-Fluoro-6-methoxy-pyridin-3-yl)-3,4-dihydro-2H-benzo[1,4]oxazin-6-yloxy]-pyrrolidin-1-yl}-propan-1-one] | 5.64 | 7.16 |
| CCC(=O)N1CC[C@H](Oc2ccc3c(c2)N(c2cnc(OC)c(Cl)c2)CCO3)C1 [Example A12, 1-{(S)-3-[4-(5-Chloro-6-methoxy-pyridin-3-yl)-3,4-dihydro-2H-benzo[1,4]oxazin-6-yloxy]-pyrrolidin-1-yl}-propan-1-one] | 6.74 | 8.52 |
| CCC(=O)N1CC[C@H](Oc2ccc3c(c2)N(c2cnc(OC)c(C)c2)CCO3)C1 [Example A13, 1-{(S)-3-[4-(6-Methoxy-5-methyl-pyridin-3-yl)-3,4-dihydro-2H-benzo[1,4]oxazin-6-yloxy]-pyrrolidin-1-yl}-propan-1-one] | 6.53 | 8.30 |
| CCC(=O)N1CC[C@H](Oc2ccc3c(c2)N(c2cnc(N)c(OC)c2)CCO3)C1 [Example A14, 1-{(S)-3-[4-(6-Amino-5-methoxy-pyridin-3-yl)-3,4-dihydro-2H-benzo[1,4]oxazin-6-yloxy]-pyrrolidin-1-yl}-propan-1-one] | < 5.04 | 5.27 |
| CCC(=O)N1CC[C@H](Oc2ccc3c(c2)N(c2ccc(OC)c(S(=O)(=O)N(C)C)c2)CCO3)C1 [Example A15, 2-Methoxy-N,N-dimethyl-5-[6-((S)-1-propionyl-pyrrolidin-3-yloxy)-2,3-dihydro-benzo[1,4]oxazin-4-yl]-benzenesulfonamide] | 5.31 | 6.74 |
| CCC(=O)N1CC[C@H](Oc2ccc3c(c2)N(c2ccc(OC)c(S(C)(=O)=O)c2)CCO3)C1 [Example A16, 1-{(S)-3-[4-(3-Methanesulfonyl-4-methoxy-phenyl)-3,4-dihydro-2H-benzo[1,4]oxazin-6-yloxy]-pyrrolidin-1-yl}-propan-1-one] | < 5.04 | 6.49 |
| CCC(=O)N1CC[C@H](Oc2ccc3c(c2)N(c2cnc(N)c(C(F)(F)F)c2)CCO3)C1 [Example A17, 1-{(S)-3-[4-(6-Amino-5-trifluoromethyl-pyridin-3-yl)-3,4-dihydro-2H-benzo[1,4]oxazin-6-yloxy]-pyrrolidin-1-yl}-propan-1-one] | 6.98 | 7.85 |
| CCC(=O)N1CC[C@H](Oc2ccc3c(c2)N(c2cnc(OC)c(S(=O)(=O)N4CCN(C)CC4)c2)CCO3)C1 [Example A18, 1-((S)-3-{4-[6-Methoxy-5-(4-methyl-piperazine-1-sulfonyl)-pyridin-3-yl]-3,4-dihydro-2H-benzo[1,4]oxazin-6-yloxy}-pyrrolidin-1-yl)-propan-1-one] | 6.05 | 7.96 |
| Cc1cc(N2CCOc3ccc(O[C@H]4CCN(C(=O)C5CCOCC5)C4)cc32)ccn1 [Example A19, {(S)-3-[4-(2-Methyl-pyridin-4-yl)-3,4-dihydro-2H-benzo[1,4]oxazin-6-yloxy]-pyrrolidin-1-yl}-(tetrahydro-pyran-4-yl)-methanone] | 5.12 | 6.42 |
| COc1cc(N2CCOc3ccc(O[C@H]4CCN(C(=O)C5CCOCC5)C4)cc32)ccn1 [Example A22, {(S)-3-[4-(2-Methoxy-pyridin-4-yl)-3,4-dihydro-2H-benzo[1,4]oxazin-6-yloxy]-pyrrolidin-1-yl}-(tetrahydro-pyran-4-yl)-methanone] | 6.12 | 7.68 |
| Nc1ncc(N2CCOc3ccc(O[C@H]4CCN(C(=O)C5CCOCC5)C4)cc32)cc1C(F)(F)F [Example A23, {(S)-3-[4-(6-Amino-5-trifluoromethyl-pyridin-3-yl)-3,4-dihydro-2H-benzo[1,4]oxazin-6-yloxy]-pyrrolidin-1-yl}-(tetrahydro-pyran-4-yl)-methanone] | 5.80 | 6.77 |
| CCC(=O)N1CC[C@H](Oc2ccc3c(c2)N(c2ccc(C)c(S(=O)(=O)N4CCCCC4)c2)CCO3)C1 [Example A24, 1-((S)-3-{4-[4-Methyl-3-(piperidine-1-sulfonyl)-phenyl]-3,4-dihydro-2H-benzo[1,4]oxazin-6-yloxy}-pyrrolidin-1-yl)-propan-1-one] | 5.16 | 6.50 |
| CCC(=O)N1CC[C@H](Oc2ccc3c(c2)N(c2cncc(S(=O)(=O)N4CCOCC4)c2)CCO3)C1 [Example A26, 1-((S)-3-{4-[5-(Morpholine-4-sulfonyl)-pyridin-3-yl]-3,4-dihydro-2H-benzo[1,4]oxazin-6-yloxy}-pyrrolidin-1-yl)-propan-1-one] | 6.82 | 7.66 |
| CCC(=O)N1CC[C@H](Oc2ccc3c(c2)N(c2cncc(S(=O)(=O)N4CCN(C)CC4)c2)CCO3)C1 [Example A28, 1-((S)-3-{4-[5-(4-Methyl-piperazine-1-sulfonyl)-pyridin-3-yl]-3,4-dihydro-2H-benzo[1,4]oxazin-6-yloxy}-pyrrolidin-1-yl)-propan-1-one] | 6.27 | 7.80 |
| CCC(=O)N1CC[C@H](Oc2ccc3c(c2)N(c2ccc(OC)c(S(=O)(=O)N(C)OC)c2)CCO3)C1 [Example A29, 2,N-Dimethoxy-N-methyl-5-[6-((S)-1-propionyl-pyrrolidin-3-yloxy)-2,3-dihydro-benzo[1,4]oxazin-4-yl]-benzenesulfonamide] | 5.56 | 7.38 |
| CCC(=O)N1CC[C@H](Oc2ccc3c(c2)N(c2cncc(S(=O)(=O)N(C)OC)c2)CCO3)C1 [Example A30, 5-[6-((S)-1-Propionyl-pyrrolidin-3-yloxy)-2,3-dihydro-benzo[1,4]oxazin-4-yl]-pyridine-3-sulfonic acid methoxy-methyl-amide] | 6.59 | 7.51 |
